Results on 20 compounds are retold here after patent US10202388B2, “Fused-ring compounds, pharmaceutical composition and uses thereof” (SHANGHAI DE NOVO PHARMATECH CO., LTD., priority 2015, dated 2019).

SMILES strings stand for the structures. Some results are limits rather than exact numbers.

One test has as its target Human recombinant IDO1 (Homo sapiens (Human), UniProt P14902). Kind of test: IDO1 enzymatic assay (UV absorption at 321 nm). The format is biochemical. Particulars: human recombinant IDO1, 80 min incubation, room temperature; read-out: hIDO1 IC50. On the procedure:
The detailed experimental method is as follow:
The compounds described in this disclosure were dissolved in 10% DMSO to predefined concentration. All of the reactions were conducted at room temperature in this disclosure. Human recombinant IDO1 (BPS Bioscience) was added so that its concentration was 200 nm in the reaction buffer solution (200 μL). […] 10 μL test compound solution was added into the above reaction solution (200 μL), so that the final concentration of DMSO in all reaction wells was 0.5%. % concentration was volume %. After 80 min incubation of the reaction solution, the UV absorbance was measured using TECAN Infinite M1000 plate reader. For the negative control (blank), 10 μl of the assay buffer was added instead of the IDO1
All reagents (excluding human recombinant IDO1) were purchased from Sigma Aldrich, MO, USA.
The percent activity in the presence of each compound was calculated according to the following equation: % activity=[(A−Ab)/(At−Ab)]×100, where A=the absorption signal in the presence of the compound, Ab=the absorption signal of blank, At=the absorption signal in the absence of the compound. […] The IC50 was calculated using non-linear regression in Graph Pad Prism® 4.

Another test deals with HeLa cell IDO1 (Homo sapiens (Human), UniProt P14902). Put plainly: HeLa cell based IDO1 inhibition assay (kynurenine readout, IFN-γ induced). Particulars: HeLa cells. On the procedure:
HeLa cell line was purchased from ATCC, cultured in MEM/EBSS medium supplemented with 10% FBS, penn-step (100,000 U/L), non-essential amino acid (0.1 Mm), sodium pyruvate (1.0 Mm). Cells were cultured at 37° C., 95% humidity and 5% CO2. […] The detailed experimental method is as follow:
25,000 HeLa cells were placed on 96-well plates. Each well contained 100 μl culture medium, subsequently IFN-γ and test compounds at specific concentrations (concentration range between 10 μM and 1 Nm, so that the final volume of culture medium was 200 μL) were added and IFN-γ was used to induce IDO1 expression. After incubation, 140 μL supernatant was transferred to 96-well plates. After adding 6.1 N TCA (10 μL), the plates were continuously incubated at 50° C. for 30 min, to hydrolyze N-formylkynurenine produced by IDO to kynurenine. The reaction solution was then centrifuged at 2500 rpm for 10 min to remove precipitate. 100 μL/well supernatant was then transferred to another 96-well plate. 100 μL of 2% (w/v) 4-N,N-dimethyl aminobenzaldehyde acetic acid solution was added and incubated at room temperature for 10 min. The yellow color derived from kynurenine was recorded by measuring absorbance at 480 nm using a microplate reader (TECAN Infinite M1000 Pro).

The target in a further test is recombinant TDO2 (Homo sapiens (Human), UniProt P48775). Put plainly: TDO2 enzymatic assay (UV absorption at 321 nm). The format is biochemical. Particulars: 50 nM TDO2, 200 μM tryptophan, 75 min. How it is done:
The TDO2 enzymatic assay was performed by UV absorption using a recombinant TDO2 and L-Tryptophan substrate. The UV absorption signal at 321 nm is correlated with the amount of N-formylkynurenine reaction product of TDO2. The compounds were diluted in 10% DMSO and 5 μL of the dilution was added to a 100 μL reaction so that the final concentration of DMSO is 0.5% in all of reactions. All of the reactions were conducted at room temperature. The 100 μL reaction mixture in TDO2 Assay Buffer contains 50 nM TDO2, the indicated amount of the inhibitor, 200 μM tryptophan, and the coupled reaction components. The reaction mixture incubated for 75 min prior to reading the UV absorption signal. For the negative control (blank), 5 μl of the assay buffer was added instead of the TDO2.
Absorption signals were measured using a Tecan Infinite M1000 plate reader. Binding experiments were performed in duplicate at each concentration. The percent activity in the presence of each compound was calculated according to the following equation: % activity=[(A−Ab)/(At−Ab)]×100, where A=the absorption signal in the presence of the compound, Ab=the absorption signal of blank, At=the absorption signal in the absence of the compound. […] The IC50 was calculated using non-linear regression in Graph Pad Prism® 4.

A further test relates to colon cancer MC38 cells. Put plainly: Subcutaneous MC38 mouse colon cancer syngeneic model in C57BL/6 mice. Particulars: single agent, s.c. MC38 tumors in female C57BL/6 mice, FIG. 1. Format: in vivo. How it is done:
Female mice (C57BL/6, 6-8 week old) were purchased from Shanghai Laboratory Animal Center, Chinese Academy of Sciences, Shanghai, China. Mice were housed under pathogen-free conditions with autoclaved rodent chow and water available ad libitum. Each mouse was inoculated s.c. with colon cancer MC38 cells in 0.1 mL PBS over the right lower flank. When the tumor volume reached 40 mm^3, mice were randomized based on initial tumor volume measurements and treated with either vehicle or compound 23A-3. Tumor volumes were measured with electronic digital caliper and calculated using the formula length (mm)×width (mm)^2/2 and expressed in mm^3. Student's t-test was used to evaluate the statistical significance of observed differences.

Chain of recombinant TDO2 (P48775 whole entry, species assumed): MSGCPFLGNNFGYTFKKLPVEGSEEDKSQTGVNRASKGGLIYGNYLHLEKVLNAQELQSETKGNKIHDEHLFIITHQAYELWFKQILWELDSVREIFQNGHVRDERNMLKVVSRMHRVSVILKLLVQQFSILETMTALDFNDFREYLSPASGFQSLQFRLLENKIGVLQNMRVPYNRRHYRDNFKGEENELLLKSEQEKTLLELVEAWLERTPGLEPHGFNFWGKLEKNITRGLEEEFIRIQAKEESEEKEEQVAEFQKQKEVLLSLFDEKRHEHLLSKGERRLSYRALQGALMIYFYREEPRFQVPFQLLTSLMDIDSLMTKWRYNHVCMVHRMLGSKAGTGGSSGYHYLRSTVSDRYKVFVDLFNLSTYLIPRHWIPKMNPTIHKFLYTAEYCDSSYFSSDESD
Chain of HeLa cell IDO1 (P14902 whole entry): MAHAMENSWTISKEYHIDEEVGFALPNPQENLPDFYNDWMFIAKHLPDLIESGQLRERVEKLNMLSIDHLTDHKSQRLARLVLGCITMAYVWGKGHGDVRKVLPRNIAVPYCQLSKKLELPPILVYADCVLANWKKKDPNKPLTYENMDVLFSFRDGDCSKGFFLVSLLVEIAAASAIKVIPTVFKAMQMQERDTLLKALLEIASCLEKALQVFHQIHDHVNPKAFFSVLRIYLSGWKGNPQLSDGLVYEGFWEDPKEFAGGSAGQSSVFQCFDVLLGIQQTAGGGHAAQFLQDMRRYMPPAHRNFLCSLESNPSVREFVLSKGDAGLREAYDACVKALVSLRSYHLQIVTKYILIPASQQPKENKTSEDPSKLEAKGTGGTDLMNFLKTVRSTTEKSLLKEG
Chain of Human recombinant IDO1 (P14902 whole entry): as above

Regarding `OC1C2CC3CC1CC([C@H](O)CC1c4c(F)cccc4-c4cncn41)(C3)C2` (some centres unmarked) [Compound 26A-3], the values for the IC50 at Human recombinant IDO1, at HeLa cell IDO1 and on recombinant TDO2 were less than 100 nM, less than 100 nM and less than 500 nM, respectively.
Take `O=S(=O)(Cc1ccccc1)NC1C2CC3CC1CC([C@H](O)CC1c4c(F)cccc4-c4cncn41)(C3)C2` (some centres unmarked) [Compound 45A-1]: the half-maximal inhibitory concentration (IC50) (commonly the concentration needed to halve the response being measured) on Human recombinant IDO1 is less than 100 nM; on HeLa cell IDO1, less than 100 nM; on recombinant TDO2 it was less than 500 nM.
On to `CC1(O)C2CC3CC1CC(C(O)CC1c4ccccc4-c4cncn41)(C3)C2` (centres unmarked) [Compound 11A-2], for which the 50% inhibitory concentration (IC50) at Human recombinant IDO1 was less than 100 nM; on recombinant TDO2 it was less than 500 nM.
As for `O=S(=O)(Cc1ccccc1)NC1C2CC3CC1CC([C@@H](O)CC1c4c(F)cccc4-c4cncn41)(C3)C2` (some centres unmarked) [Compound 45A-4], the results for the IC50 on Human recombinant IDO1, against HeLa cell IDO1 and at recombinant TDO2 were 100 to 500 nM, 100 to 500 nM and 1000 to 10000 nM, respectively.
Regarding `Nc1nonc1C(=NO)Nc1ccc(F)c(Cl)c1` [Ref. B, 4-amino-N-(3-chloro-4-fluorophenyl)-N′-hydroxy-1,2,5-oxadiazole-3-carboximidamide, reference compound], the IC50 at recombinant TDO2 is 10000 to 100000 nM.
Consider `OC1C2CC3CC1CC(C(O)CC1c4ccccc4-c4cncn41)(C3)C2` (centres unmarked) [Compound 14A], for which the IC50 at Human recombinant IDO1 and against HeLa cell IDO1 was less than 100 nM each time.
On to `OC1C2CC3CC1CC([C@H](O)CC1c4c(F)cccc4-c4cncn41)(C3)C2` (some centres unmarked) [Compound 23A-1], for which the IC50 on Human recombinant IDO1 is less than 100 nM; on HeLa cell IDO1, 100 to 500 nM.
For `OC(CC1c2ccccc2-c2cncn21)C12CC3CC(CC(C3)C1)C2` (centres unmarked) [Compound 13], the IC50 at Human recombinant IDO1 was less than 100 nM; against HeLa cell IDO1, 100 to 500 nM.
In the same order, the values of `OC1C2CC3CC1CC([C@H](O)CC1c4c(F)cccc4-c4cncn41)(C3)C2` (some centres unmarked) [Compound 23A] are less than 100 nM and less than 100 nM.
The matching figures for `OC(CC1c2ncccc2-c2cncn21)C12CC3CC(CC(C3)C1)C2` (centres unmarked) [compound 4]: 100 to 500 nM and 500 to 1000 nM.
The matching figures for `OC(CC1c2ccccc2-c2cncn21)C12CC3CC(CC(O)(C3)C1)C2` (centres unmarked) [Compound 9]: less than 100 nM and 100 to 500 nM.
On to `CC1(O)C2CC3CC1CC([C@H](O)CC1c4ccccc4-c4cncn41)(C3)C2` (some centres unmarked) [Compound 14A-4], for which the IC50 on Human recombinant IDO1 and at HeLa cell IDO1 was less than 100 nM each time.
On to `OC(CC1c2c(F)cccc2-c2cncn21)C12CC3CC(CC(C3)C1)C2` (centres unmarked) [Compound 25], for which the concentration for half-maximal inhibition (IC50) on Human recombinant IDO1 was less than 100 nM; against HeLa cell IDO1, 100 to 500 nM.
As to `CC(C)(O)CCOC1C2CC3CC1CC(C(O)CC1c4c(F)cccc4-c4cncn41)(C3)C2` (centres unmarked) [Compound 58], the results for the IC50 on Human recombinant IDO1 and on HeLa cell IDO1 were 100 to 500 nM and less than 100 nM, respectively.
The matching figures for `CS(=O)(=O)NC1C2CC3CC1CC(C(O)CC1c4c(F)cccc4-c4cncn41)(C3)C2` (centres unmarked) [Compound 46]: less than 100 nM and less than 100 nM.
With `OC(CC1c2c(F)cccc2-c2cncn21)C12CC3CC(CC(O)(C3)C1)C2` (centres unmarked) [Compound 22], the values for the IC50 on Human recombinant IDO1 and on HeLa cell IDO1 were less than 100 nM and 100 to 500 nM, respectively.
For `OC1C2CC3CC1CC([C@@H](O)CC1c4c(F)cccc4-c4cncn41)(C3)C2` (some centres unmarked) [Compound 23A-3], the concentration for half-maximal inhibition (IC50) on Human recombinant IDO1 is less than 100 nM; against HeLa cell IDO1, less than 100 nM; on recombinant TDO2, less than 500 nM. The “tumor growth inhibition (mean tumor volume versus dosing days)” value in the test on colon cancer MC38 cells is “significant tumor growth inhibition effect”.
As for `O=C(NC1C2CC3CC1CC(C(O)CC1c4ccccc4-c4cncn41)(C3)C2)c1ccccc1` (single isomer, unassigned) [Compound 52A], the IC50 at Human recombinant IDO1 and on HeLa cell IDO1 was less than 100 nM each time.
With `O=C(C[C@H]1c2ccccc2-c2cncn21)C12CC3CC(CC(C3)C1)C2` (single isomer, unassigned) [Compound 1-2], the IC50 was less than 100 nM on Human recombinant IDO1 and 100 to 500 nM against HeLa cell IDO1.
In the case of `OCCOC1C2CC3CC1CC(C(O)CC1c4c(F)cccc4-c4cncn41)(C3)C2` (centres unmarked) [Compound 61A], the IC50 on Human recombinant IDO1 and at HeLa cell IDO1 was less than 100 nM throughout.
